Measurements published in the supplement of paper PMC10307832.

Experiments:
Assay in all cases: relative viability (nuclei count vs DMSO), 5 days (fraction); higher = more cells survive
BEN = system: BEN
In short: (§1)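 Relative viability is defined as nuclei in treated wells over nuclei in vehicle wells. Duplicate plates were run and medians reported. Lung cancer cell lines in 1536-well plates were dosed by pin tool one day after seeding, with one drug or with a fixed anchor-drug dose plus five library-drug doses (not always all listed) in √10 steps, and nuclei were counted after 5 days.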

EKVX = system: EKVX
In short: as §1

HARA = system: HARA
In short: as §1

HCC-366 = system: HCC-366
In short: as §1

HCC-827 = system: HCC-827
In short: as §1

LC-2-ad = system: LC-2-ad
In short: as §1

LOU-NH91 = system: LOU-NH91
In short: as §1

NCI-H1355 = system: NCI-H1355
In short: as §1

NCI-H1437 = system: NCI-H1437
In short: as §1

NCI-H1734 = system: NCI-H1734
In short: as §1

NCI-H1792 = system: NCI-H1792
In short: as §1

NCI-H2009 = system: NCI-H2009
In short: as §1

NCI-H2087 = system: NCI-H2087
In short: as §1

NCI-H2170 = system: NCI-H2170
In short: as §1

NCI-H2228 = system: NCI-H2228
In short: as §1

NCI-H2405 = system: NCI-H2405
In short: as §1

NCI-H596 = system: NCI-H596
In short: as §1

NCI-H647 = system: NCI-H647
In short: as §1

NCI-H661 = system: NCI-H661
In short: as §1

SK-LU-1 = system: SK-LU-1
In short: as §1

SK-MES-1 = system: SK-MES-1
In short: as §1

What does the source list for C=C1C(=O)O[C@@H](CCCCCCCC)[C@@H]1C(=O)O [C-75] + C[C@@H](Oc1cc(-c2cnn(C3CCNCC3)c2)cnc1N)c1c(Cl)ccc(F)c1Cl [Crizotinib] (partner 1 µM)?
relative viability (BEN; first compound 0.08 µM): 0.897; relative viability (BEN; first compound 0.253 µM): 0.952; relative viability (BEN; first compound 0.8 µM): 0.921; relative viability (BEN; first compound 2.53 µM): 0.755; relative viability (BEN; first compound 8 µM): 0.825; relative viability (EKVX; first compound 0.08 µM): 1.01; relative viability (EKVX; first compound 0.253 µM): 0.983; relative viability (EKVX; first compound 0.8 µM): 0.897; relative viability (EKVX; first compound 2.53 µM): 0.85; relative viability (EKVX; first compound 8 µM): 0.893; relative viability (HARA; first compound 0.08 µM): 1; relative viability (HARA; first compound 0.253 µM): 1.15; relative viability (HARA; first compound 0.8 µM): 0.944; relative viability (HARA; first compound 8 µM): 1.05; relative viability (HCC-366; first compound 0.08 µM): 0.508; relative viability (HCC-366; first compound 0.253 µM): 0.76; relative viability (HCC-366; first compound 0.8 µM): 0.5; relative viability (HCC-366; first compound 8 µM): 0.509; relative viability (HCC-827; first compound 0.08 µM): 0.917; relative viability (HCC-827; first compound 0.253 µM): 0.88; relative viability (HCC-827; first compound 0.8 µM): 0.872; relative viability (HCC-827; first compound 2.53 µM): 0.973; relative viability (HCC-827; first compound 8 µM): 0.946; relative viability (LC-2-ad; first compound 0.08 µM): 0.467; relative viability (LC-2-ad; first compound 0.253 µM): 0.467; relative viability (LC-2-ad; first compound 0.8 µM): 0.369; relative viability (LC-2-ad; first compound 2.53 µM): 0.446; relative viability (LC-2-ad; first compound 8 µM): 0.42; relative viability (LOU-NH91; first compound 0.08 µM): 0.743; relative viability (LOU-NH91; first compound 0.253 µM): 0.696; relative viability (LOU-NH91; first compound 0.8 µM): 0.726; relative viability (LOU-NH91; first compound 2.53 µM): 0.682; relative viability (LOU-NH91; first compound 8 µM): 0.742; relative viability (NCI-H1355; first compound 0.08 µM): 1.05; relative viability (NCI-H1355; first compound 0.253 µM): 1.01; relative viability (NCI-H1355; first compound 0.8 µM): 0.97; relative viability (NCI-H1355; first compound 2.53 µM): 1.1; relative viability (NCI-H1355; first compound 8 µM): 1.01; relative viability (NCI-H1437; first compound 0.08 µM): 0.859; relative viability (NCI-H1437; first compound 0.253 µM): 0.968; relative viability (NCI-H1437; first compound 0.8 µM): 0.936; relative viability (NCI-H1437; first compound 2.53 µM): 0.983; relative viability (NCI-H1437; first compound 8 µM): 0.936; relative viability (NCI-H1734; first compound 0.08 µM): 0.692; relative viability (NCI-H1734; first compound 0.253 µM): 0.624; relative viability (NCI-H1734; first compound 0.8 µM): 0.618; relative viability (NCI-H1734; first compound 2.53 µM): 0.557; relative viability (NCI-H1734; first compound 8 µM): 0.69; relative viability (NCI-H1792; first compound 0.08 µM): 1.01; relative viability (NCI-H1792; first compound 0.253 µM): 0.918; relative viability (NCI-H1792; first compound 0.8 µM): 0.919; relative viability (NCI-H1792; first compound 2.53 µM): 0.857; relative viability (NCI-H1792; first compound 8 µM): 0.879; relative viability (NCI-H2009; first compound 0.08 µM): 1.04; relative viability (NCI-H2009; first compound 0.253 µM): 1.01; relative viability (NCI-H2009; first compound 0.8 µM): 0.987; relative viability (NCI-H2009; first compound 2.53 µM): 0.78; relative viability (NCI-H2009; first compound 8 µM): 0.968; relative viability (NCI-H2087; first compound 0.08 µM): 0.942; relative viability (NCI-H2087; first compound 0.253 µM): 0.563; relative viability (NCI-H2087; first compound 0.8 µM): 0.837; relative viability (NCI-H2087; first compound 2.53 µM): 0.608; relative viability (NCI-H2087; first compound 8 µM): 0.711; relative viability (NCI-H2170; first compound 0.08 µM): 1.25; relative viability (NCI-H2170; first compound 0.253 µM): 1.28; relative viability (NCI-H2170; first compound 0.8 µM): 1.23; relative viability (NCI-H2170; first compound 2.53 µM): 1.07; relative viability (NCI-H2170; first compound 8 µM): 1.24; relative viability (NCI-H2228; first compound 0.08 µM): 0.548; relative viability (NCI-H2228; first compound 0.253 µM): 0.472; relative viability (NCI-H2228; first compound 0.8 µM): 0.412; relative viability (NCI-H2228; first compound 2.53 µM): 0.438; relative viability (NCI-H2228; first compound 8 µM): 0.596; relative viability (NCI-H2405; first compound 0.08 µM): 0.825; relative viability (NCI-H2405; first compound 0.253 µM): 0.683; relative viability (NCI-H2405; first compound 0.8 µM): 0.796; relative viability (NCI-H2405; first compound 2.53 µM): 0.785; relative viability (NCI-H2405; first compound 8 µM): 0.868; relative viability (NCI-H596; first compound 0.08 µM): 1.01; relative viability (NCI-H596; first compound 0.253 µM): 0.937; relative viability (NCI-H596; first compound 0.8 µM): 0.794; relative viability (NCI-H596; first compound 2.53 µM): 0.875; relative viability (NCI-H596; first compound 8 µM): 1.03; relative viability (NCI-H647; first compound 0.08 µM): 1.06; relative viability (NCI-H647; first compound 0.253 µM): 1.05; relative viability (NCI-H647; first compound 2.53 µM): 0.842; relative viability (NCI-H647; first compound 8 µM): 0.603; relative viability (NCI-H661; first compound 0.08 µM): 1.1; relative viability (NCI-H661; first compound 0.253 µM): 1.02; relative viability (NCI-H661; first compound 0.8 µM): 1.04; relative viability (NCI-H661; first compound 2.53 µM): 0.933; relative viability (NCI-H661; first compound 8 µM): 1.09; relative viability (SK-LU-1; first compound 0.08 µM): 0.801; relative viability (SK-LU-1; first compound 0.253 µM): 0.987; relative viability (SK-LU-1; first compound 0.8 µM): 0.883; relative viability (SK-LU-1; first compound 2.53 µM): 0.907; relative viability (SK-LU-1; first compound 8 µM): 0.655; relative viability (SK-MES-1; first compound 0.08 µM): 1.04; relative viability (SK-MES-1; first compound 0.253 µM): 0.997; relative viability (SK-MES-1; first compound 0.8 µM): 0.953; relative viability (SK-MES-1; first compound 8 µM): 0.941
